Columns and labels:
Experiment in all cases: isothermal titration calorimetry
Assay type in all cases: binding
WspC-Ppshort = biological target: T1, WspC-Ppshort (Pseudomonas putida, UniProt Q88MS8)
T1 construct: amino acids 1-240, CheR domain only, lacks linker and TPR domain
Excerpt: isothermal titration calorimetry on WspC-Ppshort

WspC-Ppmiddle = biological target: T2, WspC-Ppmiddle (Pseudomonas putida, UniProt Q88MS8)
T2 construct: amino acids 1-355, CheR domain plus linker, lacks TPR domain
Excerpt: isothermal titration calorimetry on WspC-Ppmiddle

WspC-Pp = biological target: T3, WspC-Pp (Pseudomonas putida, UniProt Q88MS8)
T3 construct: full-length CheR-linker-TPR protein; monomer
Excerpt: isothermal titration calorimetry on WspC-Pp

T1 sequence (Q88MS8 1-283): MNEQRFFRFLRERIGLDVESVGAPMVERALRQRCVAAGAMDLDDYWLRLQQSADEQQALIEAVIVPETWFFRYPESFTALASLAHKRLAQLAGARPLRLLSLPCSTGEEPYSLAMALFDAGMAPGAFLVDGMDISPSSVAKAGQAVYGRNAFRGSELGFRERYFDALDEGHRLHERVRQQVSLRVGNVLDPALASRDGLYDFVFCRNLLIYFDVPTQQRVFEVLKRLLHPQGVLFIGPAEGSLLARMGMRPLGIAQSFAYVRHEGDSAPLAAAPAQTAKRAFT
T2 sequence (Q88MS8 1-355): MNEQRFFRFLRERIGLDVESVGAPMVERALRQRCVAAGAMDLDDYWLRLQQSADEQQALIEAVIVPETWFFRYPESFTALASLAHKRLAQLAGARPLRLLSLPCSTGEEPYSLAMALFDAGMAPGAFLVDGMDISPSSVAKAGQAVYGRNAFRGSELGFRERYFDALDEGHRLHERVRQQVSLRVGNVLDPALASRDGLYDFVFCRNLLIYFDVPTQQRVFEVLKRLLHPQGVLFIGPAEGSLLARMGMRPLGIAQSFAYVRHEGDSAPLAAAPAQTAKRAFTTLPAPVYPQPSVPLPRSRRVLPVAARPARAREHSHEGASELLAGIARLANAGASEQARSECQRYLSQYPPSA
T3 sequence (Q88MS8 whole entry): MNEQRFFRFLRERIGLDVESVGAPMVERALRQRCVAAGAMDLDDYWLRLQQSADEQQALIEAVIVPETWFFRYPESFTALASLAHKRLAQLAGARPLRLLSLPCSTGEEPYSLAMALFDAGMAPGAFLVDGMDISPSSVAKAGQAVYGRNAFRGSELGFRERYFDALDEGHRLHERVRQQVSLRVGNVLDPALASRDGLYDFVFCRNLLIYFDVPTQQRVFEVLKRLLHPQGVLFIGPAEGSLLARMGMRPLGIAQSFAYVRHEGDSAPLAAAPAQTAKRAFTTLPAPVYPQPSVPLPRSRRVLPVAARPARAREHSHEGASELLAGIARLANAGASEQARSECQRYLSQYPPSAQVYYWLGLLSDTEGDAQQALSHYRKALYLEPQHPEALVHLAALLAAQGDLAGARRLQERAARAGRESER

Row | Kd (WspC-Ppshort) [µM] | Kd (WspC-Ppmiddle) [µM] | Kd (WspC-Pp) [µM] | Compound
1 | 2 ± 0.1 | 1.6 ± 0.1 | 1.7 ± 0.1 | Nc1ncnc2c1ncn2[C@@H]1O[C@H](CSCC[C@H](N)C(=O)O)[C@@H](O)[C@H]1O [S-adenosylhomocysteine]
2 | 41 ± 4 | 35 ± 2 | 43 ± 2 | C[S+](CC[C@H](N)C(=O)O)C[C@H]1O[C@@H](n2cnc3c(N)ncnc32)[C@H](O)[C@@H]1O (stereo partly drawn) [S-adenosylmethionine]
